pIC50: −log10 of the molar value. Read-outs that look alike come from different tables or passages of the source.
How the values were obtained:
NMDA receptor [1] = molecular target: T1, NMDA receptor (Rattus norvegicus, UniProt P35439); assay: Inhibition of [3H]-MK-801 binding to rat crude synaptosomes (receptor ligand binding assay); conditions: affinity on NMDA; [3H]-MK-801 10 nM, rat prefrontal cortex and hippocampus crude synaptosomes; read-out: IC50
T1 construct: After the rats were decapitated, the prefrontal cortex and hippocampus were rapidly separated on ice; from tissue; host or cells: SD male rat prefrontal cortex and hippocampus, crude synaptosomes
Procedure: The affinity of the tested compounds on NMDA receptor was researched by receptor ligand binding assays.
Ten SD male rats of SPF grade were ordered and acclimated for 7 days for future use.
(§1) After the rats were decapitated, the prefrontal cortex and hippocampus were rapidly separated on ice and weighed, 10 volumes of 50 mM Tris-HCl buffer (50 mM Tris-HCl, 5 mM MgCl2·6H2O, 1 mM EDTA, 0.5% (W/V) BSA, 1 mM PMSF, 0.32 M sucrose, pH 7.4) was added, and the mixture was homogenized for five times at 1500 revolutions/min with 30 s each time. A homogenate was centrifuged for 10 min at 1000×g, and a supernatant was taken and centrifuged for 10 min at 40,000×g, the precipitates were collected, re-suspended with volumes of Tris-HCl buffer, incubated at 37° C. for 10 min, and centrifuged for 10 min at 40,000×g, finally the precipitates were re-suspended with the above buffer, aliquoted and stored at −80° C. for later use.
(2) Detection of Inhibitory Function of Tested Medicines on Binding of Crude Synaptosomes in Rats to [^3H]-MK-801
50 μg of rat crude synaptosomal proteins was added to all tubes respectively. A volume of 50 μl of MK-801 (dizocilpine) was added to a non-specific binding tube to achieve a final concentration of 100 μM, and the materials were reacted for 15 min in advance. 20 μL of control drug at corresponding concentration was added to the test tube for reaction for 15 min. A volume of 30 μl of labeled ligand [^3H]-MK-801 was successively added to all tubes to achieve a final concentration of 10 nM. All reaction tubes were supplemented to a volume of 200 μl with 50 mM Tris-HCl buffer (50 mM Tris-HCl, 5 mM MgCl2·6H2O, 1 mM EDTA, 0.5% (WN) BSA, 0.1% NaN3, pH 7.4). A reaction was carried out at 37° C. for 10 min. A type-49 glass fiber filter membrane was prepared and a sample was applied at the same time. The filter membrane was placed in a multi-head cell collector, and a reaction system was subjected to suction filtration under negative pressure and washed with an ice-cold 50 mM Tris-HCl buffer, 10 ml each time, for a total of 5 times. After suction drying, 1 ml of scintillation liquid was added to the filter membrane, the filter membrane was placed on a shaker for shaking for 1.5 h and then placed in a liquid scintillation counter on the next day to determine the radioactive intensity.
GraphPad5.0 software was used to analyze the data, and the percentage of competitive inhibition was calculated through nonlinear fitting, wherein:
Percentage of competitive inhibition %=((total binding tube cpm−compound cpm)/(total binding tube cpm−non-specific binding tube cpm))×100%;
Specific binding amount=total binding amount−non-specific binding amount, wherein each binding site was determined by double compound tubes.

rats = assay: Forced swimming test in rats; assay type: in vivo; conditions: Rattus norvegicus, Po
Procedure: Pharmacodynamic evaluation was performed by the forced swimming tests in rats. The experimental animals were male SD rats weighing 150 g-180 g and being SPF grade, and acclimated for one week after purchase, and then subjected to forced swimming tests, the rats need be fasted for 12 hours before the tests. The compounds of examples were dissolved with normal saline, and blank control group (normal saline) and example compound administration group were established. 8-10 rats were provided for each group. On the day before the tests, the rats were placed in a glass cylinder with a height of 40 cm, an inner diameter of 18 cm, and a water depth of 23 cm for pre-swimming for 15 min, and a water temperature was 28° C. After the pre-swimming the rats were removed, wiped with a dry cloth, and dried with an electrical heater, then returned to a rearing cage, and administered. A formal forced swimming test was performed on the next day for a total of 5 min. The accumulated immobility time within 5 min was recorded, and a second forced swimming test was performed on the seventh day; the criteria for determining immobility were that the rats stopped struggling in the water, were in a floating state, and had only slight limb movements to keep the head floating on the water surface. The results are shown in Table 4, and the experimental data were statistically analyzed by GraphPad Prism 5.0 software.

NMDA receptor [2] = molecular target: T1, NMDA receptor; assay: NMDA receptor agonistic properties in rat crude synaptosomal proteins (maximum [3H]-MK-801 binding vs 1 mM glycine); assay type: biochemical; conditions: maximum [3H]-MK-801 binding % relative to 1 mM glycine; 50 μM glutamic acid
Procedure: as §1
(3) Detection of Influence of Tested Medicines on NMDA Receptor Agonistic Properties in Rat Crude Synaptosomal Proteins
100 μg of rat crude synaptosomal proteins was added to all tubes respectively. 50 μl of 5,7-dichlorokynurenic acid was added to a non-specific binding tube to achieve a final concentration of 10 μM. All tubes were preloaded with 50 μM of glutamic acid, and the materials were reacted for 15 min in advance. 20 μL of control drug at corresponding concentration was added to the test tube, and then reacted for 15 min. 1 mM glycine was added to the maximum reaction tube. A volume of 30 μl of labeled ligand [^3H]-MK-801 was successively added to all tubes to achieve a final concentration of 10 nM, and reacted for 15 min. All reaction tubes were supplemented to a volume of 500 μl with 50 mM Tris-HCl buffer (50 mM Tris-HCl, 5 mM MgCl2·6H2O, 1 mM EDTA, 0.5% (WN) BSA, 0.1% NaN3, pH 7.4). A reaction was carried out at 37° C. for 15 min. A type-49 glass fiber filter membrane was prepared and a sample was applied at the same time. The filter membrane was placed in a multi-head cell collector, and the reaction system was subjected to suction filtration under negative pressure and washed with an ice-cold 50 mM Tris-HCl buffer, 10 ml each time, for a total of 5 times. After suction drying, 1 ml of scintillation liquid was added to the filter membrane, the filter membrane was placed on the shaker for shaking for 1.5 h and then placed in the liquid scintillation counter on the next day to determine the radioactive intensity.
In an agonistic experiment, maximum [^3H]-MK-801 binding %=((tested compounds cpm−5,7 dichlorokynurenic acid cpm)/(1 mM glycine cpm−5,7 dichlorokynurenic acid cpm))×100%.

[3] = In-vivo metabolism (pharmacokinetic) study in rats, oral / tail intravenous; conditions: rat, plasma; for bioavailability: male, SD, oral 10 mg/kg vs intravenous 1 mg/kg, rats; for AUC(0-t) / Cmax: male SD rats
Procedure: The pharmacokinetic parameters such as exposure of plasma concentrations of the compounds of examples were evaluated by oral/tail intravenous injection model tests in rats in order to evaluate the in-vivo metabolic stability in rats.
The male SD rats weighing 200±20 g and being SPF grade were used in this experiment and purchased from SPF.
Preparation of intravenous solution: 1 mg of each tested medicine was weighed accurately, and a volume was metered to 5 mL with 0.9% sodium chloride solution to prepare 0.2 mg/mL. A dose volume was 1 mL for per 200 g of weight, and the dose was 1 mg for per 1 kg of weight based on the concentration conversion.
Preparation of intragastric solution: 10 mg of each tested medicine was accurately weighed, and a volume was metered to 10 mL with 0.9% sodium chloride solution to prepare 1 mg/mL of the solution. A dose volume was 2 mL for per 200 g of weight, and the dose was 10 mg for per 1 kg of weight based on the concentration conversion.
Rats were randomly divided into 8 groups, 6 rats were in each group, oral gavage administration and tail intravenous administration were performed according to the above doses. About 0.2 mL of orbital blood was collected before administration and at 2 min, 5 min, 15 min, 30 min, 1 h, 2 h, 3 h, 4 h and 6 h after administration, respectively, and centrifuged at 3000 rpm for 10 min at 4° C., and a supernatant was taken for LC/MS/MS determination. A DAS pharmacokinetics program was used to analyze the measured data and calculate the main pharmacokinetic parameters.

[4] = 48 h, Day 2, *P<0.05, **P<0.01 compared with the control group, read-out: Reduction percentage (%) of floating time, Day 2
[5] = 168 h, Day 7, *P<0.05, **P<0.01 compared with the control group, read-out: Reduction percentage (%) of floating time, Day 7

SMILES | pIC50 (NMDA receptor [1]) | inhibition in vivo at 0.1 mg/kg (rats; [4]) [%] | inhibition in vivo at 0.1 mg/kg (rats; [5]) [%] | Maximum agonistic efficacy (%) (NMDA receptor [2]) | bioavailability [3] [%] | AUC(0-t) ([3]; Intravenous injection, 1 mg/kg) [ng·h/mL] | Cmax ([3]; Intravenous injection, 1 mg/kg) [ng/mL] | AUC(0-t) ([3]; Oral, 10 mg/kg) [ng·h/mL] | Cmax ([3]; Oral, 10 mg/kg) [ng/mL]
Cl.N[C@@H](CO)C(=O)N1CC2(C1)NCCS2 [A-007] | 9.05 | 35.1 | 32.4 | 56 |  |  |  |  | 
CC(=O)N1CCSC12CN(C(=O)[C@@H](N)[C@@H](C)O)C2.Cl [A-066] | 9.46 | 68 | 55.3 | 29 | 54.5 | 1380 | 1690 | 7560 | 2080
C[C@@H](O)[C@H](N)C(=O)N1CCC2(C1)NCCS2.Cl (some centres unmarked) [A-020] | 9.60 | 51.8 | 59.3 | 42 |  |  |  |  | 
CC(C)[C@H](N)C(=O)N1CC2(C1)N[C@H](C(N)=O)CS2.Cl [A-260] | 9.59 | 31.6 | 15.5 | 26 | 74.6 | 1450 | 2240 | 10800 | 6210
C[C@@H](O)[C@H](N)C(=O)N1CC2(C1)N[C@H](C(N)=O)CS2.Cl [A-258] | 9.48 | 74.8 | 56.4 | 21 | 27.3 | 4180 | 3630 | 11400 | 4910
CC(C)[C@H](N)C(=O)N1CC2(C1)NCCS2.Cl [A-008] | 9.05 | 54.9 | 57.3 | 35 |  |  |  |  | 
CC(C)C(=O)N1CCSC12CN(C(=O)[C@@H](N)[C@@H](C)O)C2.Cl [A-098] | 9.01 | 64.5 | 13.9 | 28 | 19.1 | 952 | 1090 | 1820 | 767
CC(=O)N1CCSC12CCN(C(=O)[C@@H](N)[C@@H](C)O)CC2.Cl [A-082] | 9.05 |  |  | 45 | 19.6 | 6850 | 18300 | 13400 | 5580
C[C@@H](O)[C@H](N)C(=O)N1CCC2(CC1)NCCS2.Cl [A-034] | 9.05 | 71.9 | 60.1 | 25 |  |  |  |  | 

From US20230348493A1, “COMPOUND FOR ADJUSTING ACTIVITY OF NMDA RECEPTOR, AND PHARMACEUTICAL COMPOSITION AND USE THEREOF” (BEIJING GREATWAY PHARMACEUTICAL TECHNOLOGY CO., LTD., priority 2020, published 2023)
